Assay results reported in patent US6872748B2 (priority 2001, dated 2005).
Read-outs that look alike come from different tables or passages of the source.

What was measured:
[1] = tested on: Male ICR mice; assay: animal or person; assay type: in vivo; settings: for ED50: Mus musculus, ip, read-out: Writhing Test (ED50 = μG/KG); for Relative effect (fold stronger than capsaicin): mouse, in vivo
[2] = target: T1, VR1 (Rattus norvegicus, UniProt O35433); assay: biochemical; assay type: binding
T1 construct: expressed in transfected cells; host or cells: Chinese Hamster Ovary cells (CHO, ATCC CCL-61), Tet-off inducible expression

[3] = target: T1, VR1; assay: cell-based
[4] = tested on: Male Sprague-Dawley rat; settings: in vivo
[5] = read-out: Binding Affinity (Ki = nM)

T1 sequence (O35433 whole entry): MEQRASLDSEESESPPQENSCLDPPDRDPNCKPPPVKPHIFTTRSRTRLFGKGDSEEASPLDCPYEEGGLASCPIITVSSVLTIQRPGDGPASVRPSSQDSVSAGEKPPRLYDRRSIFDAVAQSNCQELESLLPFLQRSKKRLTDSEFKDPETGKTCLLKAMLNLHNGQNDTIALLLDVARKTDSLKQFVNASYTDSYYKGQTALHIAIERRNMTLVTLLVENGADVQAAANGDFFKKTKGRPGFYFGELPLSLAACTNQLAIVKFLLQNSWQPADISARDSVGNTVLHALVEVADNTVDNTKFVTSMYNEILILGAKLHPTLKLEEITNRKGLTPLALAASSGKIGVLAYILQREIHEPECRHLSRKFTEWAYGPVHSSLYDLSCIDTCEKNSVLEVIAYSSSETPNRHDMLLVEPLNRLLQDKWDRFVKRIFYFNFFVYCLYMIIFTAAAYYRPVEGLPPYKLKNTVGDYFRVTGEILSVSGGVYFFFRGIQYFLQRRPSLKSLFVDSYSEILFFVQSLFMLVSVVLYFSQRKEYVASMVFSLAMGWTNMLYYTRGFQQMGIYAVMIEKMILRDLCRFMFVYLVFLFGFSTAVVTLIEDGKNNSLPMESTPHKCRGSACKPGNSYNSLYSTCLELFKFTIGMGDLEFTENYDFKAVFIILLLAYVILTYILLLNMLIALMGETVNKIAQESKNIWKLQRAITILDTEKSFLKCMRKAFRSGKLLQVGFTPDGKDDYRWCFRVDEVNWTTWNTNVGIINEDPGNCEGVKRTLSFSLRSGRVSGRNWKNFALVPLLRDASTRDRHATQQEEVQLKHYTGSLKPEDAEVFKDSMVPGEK

Compound | ED50 [1] | Ki [2] | Relative effect (fold stronger than capsaicin) [1] | MPP (moderate pain-producing potency) [4] | RPP (relative pain-producing potency) [4] | also measured
COc1cc(CNC(=O)CCCC/C=C/C(C)C)ccc1O [Capsaicin, 8-methyl-N-vanillyl-6-nonenamides, reference compound] | 1.34 µg/kg |  |  |  |  | 
COc1cc(CNC(=S)NCC(CCc2ccc(C)c(C)c2)COC(=O)C(C)(C)C)ccc1O (stereo not shown) [Compound 28, N-[4-(3,4-Dimethylphenyl)-2-(pivaloyloxymethyl)butyl]-N′-[4-hydroxy-3-methoxybenzyl]thiourea] |  | 24.9 nM |  |  |  | 
COc1cc(CNC(=S)NCC(CCc2ccc(C(C)(C)C)cc2)COC(=O)C(C)(C)C)ccc1O (stereo not shown) [Compound 29, N-[4-tert-Butylphenyl-2-(pivaloyloxymethyl)butyl]-N′-[4-hydroxy-3-methoxybenzyl]thiourea] |  | 18.3 nM |  |  |  | 
COc1cc(CC(=O)NCC(CCc2ccc(C)c(C)c2)COC(=O)C(C)(C)C)ccc1O (stereo not shown) [Compound 34, N-[4-(3,4-Dimethylphenyl)-2-(pivaloyloxymethyl)butyl]-2-[4-hydroxy-3-methoxyphenyl]acetamide] | 0.934 µg/kg | 153 nM | 1.4 |  |  | EC50 [3]: 0.784 nM; fold stronger effect than JYL-273 (45Ca influx EC50) [3]: 4 fold; fold stronger effect than LJO-198 (45Ca influx EC50) [3]: 16 fold; fold stronger effect than capsaicin (45Ca influx EC50) [3]: 57 fold
COc1cc(CC(=O)NCC(CCc2ccc(C(C)(C)C)cc2)COC(=O)C(C)(C)C)ccc1O (stereo not shown) [Compound 35, N-[4-(4-tert-Butylphenyl)-2-(pivaloyloxymethyl)butyl]-2-[4-hydroxy-3-methoxyphenyl]acetamide] |  | 36.3 nM |  |  |  | 
COc1cc(CC(=O)NCC(CCc2ccc(C)c(C)c2)COC(=O)C(C)(C)C)ccc1OCCN (stereo not shown) [Compound 38, N-[4-(3,4-Dimethylphenyl)-2-(pivaloyloxymethyl)butyl]-2-[4-(2-aminoethoxy)-3-methoxyphenyl]acetamide] | 0.076 µg/kg | 855 nM | 18 | 29 µg/mL | ~5.5 | 
COc1cc(CNC(=S)NC(COC(=O)C(C)(C)C)Cc2ccc(C)c(C)c2)ccc1O (stereo not shown) [Compound 62, N-[3-(3,4-Dimethylphenyl)-1-pivaloyloxy-2-propyl]-N′-[4-hydroxy-3-methoxybenzyl]thiourea] | 0.006 µg/kg | 45.3 nM | 224 | 11.57 µg/mL | 14 | 
COc1cc(CNC(=S)NC(COC(=O)C(C)(C)C)Cc2ccc(C(C)(C)C)cc2)ccc1O (stereo not shown) [Compound 63, N-[3-(4-tert-Butylphenyl)-1-pivaloyloxy-2-propyl]-N′-[4-hydroxy-3-methoxybenzyl]thiourea] | 0.00036 µg/kg | 34.6 nM |  |  |  | 
COc1cc(CNC(=S)NC(CCc2ccc(C)c(C)c2)COC(=O)C(C)(C)C)ccc1O (stereo not shown) [Compound 64, N-[4-(3,4-Dimethylphenyl)-1-pivaloyloxy-2-butyl]-N′-[4-hydroxy-3-methoxybenzyl]thiourea] |  | 244 nM |  |  |  | 
COc1cc(CNC(=S)NC(COC(=O)C(C)(C)C)Cc2ccc(C)c(C)c2)ccc1OCCN (stereo not shown) [Compound 74, N-[3-(3,4-Dimethylphenyl)-1-pivaloyloxy-2-propyl]-N′-[4-(2-aminoethoxy)-3-methoxybenzyl]thiourea] | 3e-05 µg/kg |  |  | 18.02 µg/mL |  | 
COc1cc(CNC(=S)NC(COC(=O)C(C)(C)C)Cc2ccc(C(C)(C)C)cc2)ccc1OCCN (stereo not shown) [Compound 75, N-[3-(4-tert-Butylphenyl)-1-pivaloyloxy-2-propyl]-N′-[4-(2-aminoethoxy)-3-methoxybenzyl]thiourea] | 0.00061 µg/kg | 341 nM |  | 47 µg/mL | ~3.4 | 
COc1cc(CNC(=S)OCC(COC(=O)C(C)(C)C)Cc2ccc(C)c(C)c2)ccc1O (stereo not shown) [Compound 125, N-(4-hydroxy-3-methoxybenzyl)-O-[2-(3,4-Dimethylbenzyl)-3-(pivaloyloxy)propyl]thiocarbamate] |  | 143 nM |  |  |  | 
COc1cc(CNC(=S)OCc2ccc(C(C)(C)C)cc2)ccc1O [Compound 132, O-(4-tert-Butylbenzyl)-N-(4-hydroxy-3-methoxybenzyl) thiocarbamate] |  | 1960 nM |  |  |  | 
COc1cc(COC(=S)NCC(COC(=O)C(C)(C)C)Cc2ccc(C)c(C)c2)ccc1O (stereo not shown) [Compound 140, N-[2-(3,4-Dimethylbenzyl)-3-(pivaloyloxy)propyl]-O-(4-hydroxy-3-methoxybenzyl)thiocarbamate] |  | 156 nM |  |  |  | EC50 [3]: 2.4 nM
COc1cc(COC(=S)NCc2ccc(C(C)(C)C)cc2)ccc1O [Compound 147, N-(4-tert-Butylbenzyl)-O-(4-hydroxy-3-methoxybenzyl)thiocarbamate] |  | 1940 nM |  |  |  | 
COc1cc(CNC(=S)NCC(COC(=O)C(C)(C)C)Cc2ccc(C)c(C)c2)ccc1O (stereo not shown) [JYL-79, reference compound] | 0.161 µg/kg |  | 8 | 1.7 µg/mL | 94 | Ki [2, 5]: 17.4 nM
COc1cc(CNC(=S)NCC(COC(=O)C(C)(C)C)Cc2ccc(C(C)(C)C)cc2)ccc1O (stereo not shown) [JYL-273, reference compound] | 0.107 µg/kg |  |  | 23 µg/mL | 7 | Ki [2, 5]: 6.35 nM
COc1cc(CC(=O)NCC(COC(=O)C(C)(C)C)Cc2ccc(C)c(C)c2)ccc1O (stereo not shown) [LJO-198, reference compound] | 0.0235 µg/kg | 157 nM | 57 |  |  | 
COc1cc(CC(=O)NCC(COC(=O)C(C)(C)C)Cc2ccc(C)c(C)c2)ccc1OCCN (stereo not shown) [MSK-195, reference compound] | 1.17 µg/kg | 603 nM | 1.1 | 14.9 µg/mL | 11 | 
